These results are taken from patent US9150632B2 (Indiana University Research and Technology Corporation, priority 2009, dated 2015).

As a reminder, the EC50 is the concentration at which the effect is half-maximal.

Assay [1] addresses GLP-1 receptor (Homo sapiens, UniProt P43220). The settings on record: for GLP-1 Receptor % relative activity: activity relative to the native hormone at the indicated receptor; for EC50: read-out: GLP-1 Receptor EC50, cAMP induction, in vitro, as in Example 14; for % Activity of GLP-1: Table 21, relative to the native peptide; for GLP-1 Receptor Relative Potency: Table 11.
Assay [2] addresses T1, GIP receptor (Homo sapiens, UniProt P48546).
T1 construct: expressed in transfected cells; host or cells: HEK293
T1 sequence (P48546 22-466): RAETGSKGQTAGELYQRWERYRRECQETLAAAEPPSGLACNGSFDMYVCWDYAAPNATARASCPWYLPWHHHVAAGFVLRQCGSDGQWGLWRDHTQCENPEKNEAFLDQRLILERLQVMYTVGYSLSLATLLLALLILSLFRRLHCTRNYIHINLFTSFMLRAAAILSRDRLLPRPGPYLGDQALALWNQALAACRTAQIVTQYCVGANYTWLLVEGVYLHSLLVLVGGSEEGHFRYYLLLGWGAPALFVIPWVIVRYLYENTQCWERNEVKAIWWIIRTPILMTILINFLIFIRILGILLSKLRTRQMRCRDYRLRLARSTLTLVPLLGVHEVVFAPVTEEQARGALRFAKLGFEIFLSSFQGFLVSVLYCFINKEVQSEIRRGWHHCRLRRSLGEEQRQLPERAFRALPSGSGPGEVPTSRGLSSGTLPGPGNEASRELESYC
Nature of the assay: Functional assay-cAMP synthesis, luciferase reporter in HEK293 cells, GIP receptor. The class given is cell-based. The settings on record: for GIP Receptor % relative activity: activity relative to the native hormone at the indicated receptor; for EC50: read-out: GIP Receptor EC50, cAMP induction, in vitro, as in Example 14.

Assay [3] deals with T2, glucagon receptor (Homo sapiens, UniProt P47871).
T2 construct: expressed in transfected cells; host or cells: HEK293
The assay is described as follows: Functional assay-cAMP synthesis, luciferase reporter in HEK293 cells, glucagon receptor. It is filed as cell-based. To be noted: for % Activity of Glucagon: Table 21, relative to the native peptide; for Glucagon Receptor Relative Potency: Table 11. (Reporter assays use an easily measured gene product as a stand-in for the process of interest.)
Description: Peptide absorbance readings were obtained from UV Absorbance measurements at 280 nm on a Genesys 6 Spectrophotometer (Thermo Electron Corporation). Beer's Law was used to calculate solution concentrations based on the number of tryptophan and tyrosine residues in each analog. At the end of the incubation, 100 μL LucLite luminescence substrate reagent was added to each well, the plate sealed and shaken, and placed into a Wallac Trilux luminescence counter for cAMP detection.
HEK293 cells were co-transfected with the GcgR or GLP-1R cDNAs and a luciferase reporter gene-linked to a cAMP response element (CRE). […] The plate was incubated for 10 min in the dark and light output was quantified on a MicroBeta1450 liquid scintillation counter (Perkin-Elmer, Wellesley, Mass.).

Setting [4] is: Table 18, relative to the native hormone of the indicated receptor.

Like-named read-outs stand apart in the source and are kept apart here. Positions of bridges follow the written chain, without caps; N, C: chain ends. Non-standard residues stand in square brackets, D forms with d. Residues, ends and D or L forms follow the SMILES beside them. No end group written: not given here. *: point of attachment. Myristoyl = CCCCCCCCCCCCCC(=O)*; Aib = CC(C)(N)C(=O)O

T2 sequence (P47871 26-477): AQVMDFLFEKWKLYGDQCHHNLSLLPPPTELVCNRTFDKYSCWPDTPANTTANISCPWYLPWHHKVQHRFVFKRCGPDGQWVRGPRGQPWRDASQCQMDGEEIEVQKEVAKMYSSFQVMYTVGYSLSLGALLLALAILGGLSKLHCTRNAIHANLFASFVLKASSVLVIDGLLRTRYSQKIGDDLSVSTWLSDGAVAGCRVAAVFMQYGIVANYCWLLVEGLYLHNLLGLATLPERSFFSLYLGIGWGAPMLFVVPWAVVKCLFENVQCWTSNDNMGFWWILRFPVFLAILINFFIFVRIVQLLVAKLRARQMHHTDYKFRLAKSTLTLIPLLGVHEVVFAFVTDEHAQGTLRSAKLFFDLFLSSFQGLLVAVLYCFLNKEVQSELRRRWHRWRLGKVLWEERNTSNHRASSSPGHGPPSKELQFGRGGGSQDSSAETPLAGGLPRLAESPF
Chain of GLP-1 receptor (P43220 24-463, species assumed): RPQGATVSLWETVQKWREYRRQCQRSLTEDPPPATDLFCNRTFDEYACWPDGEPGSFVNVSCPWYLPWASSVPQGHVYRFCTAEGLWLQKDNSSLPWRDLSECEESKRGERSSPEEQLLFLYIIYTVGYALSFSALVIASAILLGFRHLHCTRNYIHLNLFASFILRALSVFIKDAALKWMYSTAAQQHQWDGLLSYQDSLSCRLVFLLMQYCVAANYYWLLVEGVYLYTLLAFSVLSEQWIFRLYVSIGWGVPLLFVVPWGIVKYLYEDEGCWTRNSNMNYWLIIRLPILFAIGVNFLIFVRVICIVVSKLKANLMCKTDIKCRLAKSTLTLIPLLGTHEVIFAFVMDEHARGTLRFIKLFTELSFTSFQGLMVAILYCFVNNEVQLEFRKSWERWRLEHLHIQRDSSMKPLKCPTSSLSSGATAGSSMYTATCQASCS

In the case of “mt-351: pegylated glucagon peptide of Table 34 (H[Aib]QGTFTSDYSKYLD[Aib]QAAKEFIC(PEG 40 kDa)WLMNGGPSSGAPPPSK(Myristoyl)-NH2; also: acylated with a C14 fatty acyl group, site not given here)”, in assay [1], the “GLP-1 Receptor % relative activity” value was determined as 150.00% and the EC50 came out at 0.0042 nM. In assay [2], the “GIP Receptor % relative activity” value is given as 0.09% and the 50% effective concentration (EC50) was 4.12 nM.
On to “mt-352: pegylated glucagon peptide of Table 34 (H[Aib]QGTFTSDYSKYLD[Aib]QAAKEFIC(PEG 40 kDa)WLMNGGPSSGAPPPSK-NH2)”, for which, in assay [1], the “GLP-1 Receptor % relative activity” value was 23.08% and the EC50 amounted to 0.0273 nM. Moreover, in assay [2], the “GIP Receptor % relative activity” value turned out to be 0.01% and the concentration for a half-maximal effect (EC50) came to 51.1 nM.
Turning to `CCCCCCCCCCCCCCCCCC(=O)NCCCC[C@H](NC(=O)[C@H](CC(=O)O)NC(=O)[C@H](CO)NC(=O)[C@@H](NC(=O)[C@H](Cc1ccccc1)NC(=O)[C@@H](NC(=O)CNC(=O)[C@H](CCC(N)=O)NC(=O)C(C)(C)NC(=O)[C@@H](N)Cc1c[nH]cn1)[C@@H](C)O)[C@@H](C)O)C(=O)N[C@@H](CO)C(=O)N[C@@H](CCCCN)C(=O)N[C@@H](Cc1ccc(O)cc1)C(=O)N[C@@H](CC(C)C)C(=O)N[C@@H](CC(=O)O)C(=O)NC(C)(C)C(=O)N[C@@H](CCCNC(=N)N)C(=O)N[C@@H](CCCNC(=N)N)C(=O)N[C@@H](C)C(=O)N[C@@H](CCC(N)=O)C(=O)N[C@@H](CC(=O)O)C(=O)N[C@@H](Cc1ccccc1)C(=O)N[C@H](C(=O)N[C@@H](CCC(N)=O)C(=O)N[C@@H](Cc1c[nH]c2ccccc12)C(=O)N[C@@H](CC(C)C)C(=O)N[C@@H](CCSC)C(=O)N[C@@H](CC(N)=O)C(=O)N[C@H](C(N)=O)[C@@H](C)O)C(C)C` [AIB2, AIB16, K10(C18) Gluc Amide], in assay [1], the “% Activity of GLP-1” value came out at 88.9%. Also, the “% Activity of Glucagon” value in assay [3] stood at 212.5%.
Regarding “H-HSQGTFTSDYSKYLDSRRAQDFVQWLVKGGPSSGAPPPS-NH2 [VKGG^30 PSSGAPPPS (SEQ ID NO: 524)]”, the “GLP-1 Receptor Relative Potency” value in assay [1] is reported as 12%. In addition, the “Glucagon Receptor Relative Potency” value in assay [3] was found to be 7%.
`CSCC[C@H](NC(=O)[C@H](CC(C)C)NC(=O)[C@H](Cc1c[nH]c2ccccc12)NC(=O)[C@H](CC(N)=O)NC(=O)[C@@H](NC(=O)[C@H](Cc1ccccc1)NC(=O)[C@H](CCC(=O)O)NC(=O)[C@@H]1CCCCNC(=O)CC[C@H](NC(=O)[C@H](CC(=O)O)NC(=O)[C@H](CC(C)C)NC(=O)[C@H](Cc2ccc(O)cc2)NC(=O)[C@H](CCCCN)NC(=O)[C@H](CO)NC(=O)[C@H](Cc2ccc(O)cc2)NC(=O)[C@H](CC(=O)O)NC(=O)[C@H](CO)NC(=O)[C@@H](NC(=O)[C@H](Cc2ccccc2)NC(=O)[C@@H](NC(=O)CNC(=O)[C@H](CCC(N)=O)NC(=O)[C@H](CO)NC(=O)[C@@H](N)Cc2ccc(O)cc2)[C@@H](C)O)[C@@H](C)O)C(=O)N[C@@H](CCC(N)=O)C(=O)N[C@@H](C)C(=O)N[C@@H](C)C(=O)N1)C(C)C)C(=O)N[C@@H](CC(N)=O)C(=O)NCC(=O)NCC(=O)N1CCC[C@H]1C(=O)N[C@@H](CO)C(=O)N[C@@H](CO)C(=O)NCC(=O)N[C@@H](C)C(=O)N1CCC[C@H]1C(=O)N1CCC[C@H]1C(=O)N1CCC[C@H]1C(=O)N[C@@H](CO)C(N)=O` [SEQ ID NO: 555] (H-YSQGTFTSDYSKYLDEQAAKEFVNWLMNGGPSSGAPPPS-NH2; lactam 16-20; N-terminus assumed): the “Relative Activity, GLP-1 receptor” value in assay [1] (setting [4]) worked out at 100.00%. Moreover, the “Relative Activity, Glucagon receptor” value in assay [3] (setting [4]) is 343.18%.
Regarding `CCCCCCCCCCCCCCCCCC(=O)NCCCC[C@H](NC(=O)[C@H](CC(=O)O)NC(=O)[C@H](CO)NC(=O)[C@@H](NC(=O)[C@H](Cc1ccccc1)NC(=O)[C@@H](NC(=O)CNC(=O)[C@H](CCC(N)=O)NC(=O)[C@@H](CO)NC(=O)[C@@H](N)Cc1c[nH]cn1)[C@@H](C)O)[C@@H](C)O)C(=O)N[C@@H](CO)C(=O)N[C@@H](CCCCN)C(=O)N[C@@H](Cc1ccc(O)cc1)C(=O)N[C@@H](CC(C)C)C(=O)N[C@@H](CC(=O)O)C(=O)N[C@@H](CCC(=O)O)C(=O)N[C@@H](CCCNC(=N)N)C(=O)N[C@@H](CCCNC(=N)N)C(=O)N[C@@H](C)C(=O)N[C@@H](CCCCN)C(=O)N[C@@H](CC(=O)O)C(=O)N[C@@H](Cc1ccccc1)C(=O)N[C@H](C(=O)N[C@@H](CCC(N)=O)C(=O)N[C@@H](Cc1c[nH]c2ccccc12)C(=O)N[C@@H](CC(C)C)C(=O)N[C@@H](CCSC)C(=O)N[C@@H](CC(N)=O)C(=O)N[C@H](C(N)=O)[C@@H](C)O)C(C)C` [dS2, E16/K20, K10(C18) Gluc Amide], in assay [1], the “% Activity of GLP-1” value amounted to 60%. Further, in assay [3], the “% Activity of Glucagon” value was found to be 196%.
Regarding `CSCC[C@H](NC(=O)[C@H](CC(C)C)NC(=O)[C@H](Cc1c[nH]c2ccccc12)NC(=O)[C@H](CCC(N)=O)NC(=O)[C@@H](NC(=O)[C@H](Cc1ccccc1)NC(=O)[C@H](CC(=O)O)NC(=O)[C@H](CCCCN)NC(=O)[C@H](C)NC(=O)[C@H](CCCNC(=N)N)NC(=O)[C@H](CCCNC(=N)N)NC(=O)[C@H](CCC(=O)O)NC(=O)[C@H](CC(=O)O)NC(=O)[C@H](CC(C)C)NC(=O)[C@H](Cc1ccc(O)cc1)NC(=O)[C@H](CCCCN)NC(=O)[C@H](CO)NC(=O)[C@H](Cc1ccc(O)cc1)NC(=O)[C@H](CC(=O)O)NC(=O)[C@H](CO)NC(=O)[C@@H](NC(=O)[C@H](Cc1ccccc1)NC(=O)[C@@H](NC(=O)CNC(=O)[C@H](CCC(N)=O)NC(=O)[C@H](CO)NC(=O)[C@@H](N)Cc1c[nH]cn1)[C@@H](C)O)[C@@H](C)O)C(C)C)C(=O)N[C@@H](CC(N)=O)C(=O)N[C@H](C(N)=O)[C@@H](C)O` [E16, K20 Gluc-NH2], the “Percent Potency Relative to Native Ligand GLP-1Rec” value in assay [1] (Table 5) and in assay [1] (Table 9) was 41.5% each time. In addition, the “Percent Potency Relative to Native Ligand GRec” value in assay [3] (Table 5) and in assay [3] (Table 9) was 130.1% each time.
In the case of `CCCCCCCCCCCCCC(=O)NCCCC[C@H](NC(=O)[C@H](CC(=O)O)NC(=O)[C@H](CO)NC(=O)[C@@H](NC(=O)[C@H](Cc1ccccc1)NC(=O)[C@@H](NC(=O)CNC(=O)[C@H](CCC(N)=O)NC(=O)C(C)(C)NC(=O)[C@@H](N)Cc1c[nH]cn1)[C@@H](C)O)[C@@H](C)O)C(=O)N[C@@H](CO)C(=O)N[C@@H](CCCCN)C(=O)N[C@@H](Cc1ccc(O)cc1)C(=O)N[C@@H](CC(C)C)C(=O)N[C@@H](CC(=O)O)C(=O)NC(C)(C)C(=O)N[C@@H](CCCNC(=N)N)C(=O)N[C@@H](CCCNC(=N)N)C(=O)N[C@@H](C)C(=O)N[C@@H](CCC(N)=O)C(=O)N[C@@H](CC(=O)O)C(=O)N[C@@H](Cc1ccccc1)C(=O)N[C@H](C(=O)N[C@@H](CCC(N)=O)C(=O)N[C@@H](Cc1c[nH]c2ccccc12)C(=O)N[C@@H](CC(C)C)C(=O)N[C@@H](CCSC)C(=O)N[C@@H](CC(N)=O)C(=O)N[C@H](C(N)=O)[C@@H](C)O)C(C)C` [AIB2, AIB16, K10(C14) Gluc Amide], the “% Activity of GLP-1” value in assay [1] was determined as 33.3%. In assay [3], the “% Activity of Glucagon” value turned out to be 77.3%.
As for `CSCC[C@H](NC(=O)[C@H](CC(C)C)NC(=O)[C@H](Cc1c[nH]c2ccccc12)NC(=O)[C@H](CCC(N)=O)NC(=O)[C@@H](NC(=O)[C@H](Cc1ccccc1)NC(=O)[C@H](CC(=O)O)NC(=O)[C@H](CCC(N)=O)NC(=O)[C@H](C)NC(=O)[C@H](CCCNC(=N)N)NC(=O)[C@H](CCCNC(=N)N)NC(=O)[C@H](CO)NC(=O)[C@H](CC(=O)O)NC(=O)[C@H](CC(C)C)NC(=O)[C@H](Cc1ccc(O)cc1)NC(=O)[C@H](CCCCN)NC(=O)[C@H](CO)NC(=O)[C@H](Cc1ccc(O)cc1)NC(=O)[C@H](CC(=O)O)NC(=O)[C@H](CO)NC(=O)[C@@H](NC(=O)[C@H](Cc1ccccc1)NC(=O)[C@@H](NC(=O)CNC(=O)[C@H](CCC(N)=O)NC(=O)[C@H](CO)NC(=O)[C@@H](N)Cc1c[nH]cn1)[C@@H](C)O)[C@@H](C)O)C(C)C)C(=O)N[C@@H](CCCCN)C(=O)NCC(=O)NCC(=O)N1CCC[C@H]1C(=O)N[C@@H](CO)C(=O)N[C@@H](CO)C(=O)NCC(=O)N[C@@H](C)C(=O)N1CCC[C@H]1C(=O)N1CCC[C@H]1C(=O)N1CCC[C@H]1C(=O)N[C@@H](CO)C(N)=O` [MKGG^30 PSSGAPPPS (SEQ ID NO: 523)], the “GLP-1 Receptor Relative Potency” value in assay [1] worked out at 3%. Further, the “Glucagon Receptor Relative Potency” value in assay [3] came to 14%.
